Source: PubChem BioAssay (NCI)
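How tested: cells in 96-well plates exposed to compound for 48 hours at five concentrations. TGI: total growth inhibition.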

Legend:
Assay in all cases: NCI-60 cell line screen, 48 h
[1] = system: SF-539 CNS
[2] = system: SW-620 colon
[3] = system: A498 renal
[4] = system: TK-10 renal
[5] = system: MOLT-4 leukemia
[6] = system: COLO 205 colon
[7] = system: T-47D breast
[8] = system: CCRF-CEM leukemia
[9] = system: K-562 leukemia
[10] = system: HCT-116 colon
[11] = system: OVCAR-3 ovarian
[12] = system: BT-549 breast
[13] = system: SF-295 CNS
[14] = system: LOX IMVI melanoma
[15] = system: SN12C renal
[16] = system: SK-OV-3 ovarian
[17] = system: UO-31 renal
[18] = system: UACC-257 melanoma
[19] = system: SNB-19 CNS
[20] = system: NCI-H226 lung
[21] = system: 786-0 renal
[22] = system: HL-60(TB) leukemia
[23] = system: KM12 colon
[24] = system: MDA-MB-435
[25] = system: MCF7 breast
[26] = system: HOP-62 NSCLC
[27] = system: NCI-H460 lung
[28] = system: CAKI-1 renal
[29] = system: HCC-2998 colon
[30] = system: NCI-H23 lung
[31] = system: SK-MEL-28 melanoma
[32] = system: HCT-15 colon
[33] = system: SF-268 CNS
[34] = system: DU-145 prostate
[35] = system: OVCAR-4 ovarian
[36] = system: MDA-MB-231 breast
[37] = system: PC-3 prostate
[38] = system: U251 CNS
[39] = system: MDA-N
[40] = system: SK-MEL-5 melanoma
[41] = system: HOP-92 NSCLC
[42] = system: EKVX NSCLC
[43] = system: RPMI-8226 leukemia
[44] = system: SNB-75 CNS
[45] = system: A549 NSCLC
[46] = system: OVCAR-8 ovarian
[47] = system: UACC-62 melanoma
[48] = system: NCI/ADR-RES ovarian
[49] = system: OVCAR-5 ovarian
[50] = system: M14 melanoma
[51] = system: ACHN renal
[52] = system: RXF 393 renal
[53] = system: MALME-3M melanoma
[54] = system: IGROV1 ovarian
[55] = system: SK-MEL-2 melanoma
[56] = system: NCI-H522 lung

## CN(C)S(=O)(=O)/N=C/c1cccc(/C=N/S(=O)(=O)N(C)C)c1
[1]
  TGI: > 100 µM
[2]
  TGI: > 100 µM
[3]
  TGI: > 100 µM
[4]
  TGI: > 100 µM
[5]
  TGI: > 100 µM
[6]
  TGI: > 100 µM
[7]
  TGI: > 100 µM
[8]
  TGI: > 100 µM
[9]
  TGI: > 100 µM
[10]
  TGI: > 100 µM
[11]
  TGI: > 100 µM
[12]
  TGI: > 100 µM
[13]
  TGI: > 100 µM
[14]
  TGI: > 100 µM
[15]
  TGI: > 100 µM
[16]
  TGI: > 100 µM
[17]
  TGI: > 100 µM
[18]
  TGI: > 100 µM
[19]
  TGI: > 100 µM
[20]
  TGI: > 100 µM
[21]
  TGI: > 100 µM
[22]
  TGI: > 100 µM
[23]
  TGI: > 100 µM
[24]
  TGI: > 100 µM
[25]
  TGI: > 100 µM
[26]
  TGI: > 100 µM
[27]
  TGI: > 100 µM
[28]
  TGI: > 100 µM
[29]
  TGI: > 100 µM
[30]
  TGI: > 100 µM
[31]
  TGI: > 100 µM
[32]
  TGI: > 100 µM
[33]
  TGI: > 100 µM
[34]
  TGI: > 100 µM
[35]
  TGI: > 100 µM
[36]
  TGI: > 100 µM
[37]
  TGI: > 100 µM
[38]
  TGI: > 100 µM
[39]
  TGI: > 100 µM
[40]
  TGI: > 100 µM
[41]
  TGI: > 100 µM
[42]
  TGI: > 100 µM
[43]
  TGI: > 100 µM
[44]
  TGI: 92.8 µM
[45]
  TGI: > 100 µM
[46]
  TGI: > 100 µM
[47]
  TGI: > 100 µM
[48]
  TGI: > 100 µM
[49]
  TGI: > 100 µM
[50]
  TGI: > 100 µM
[51]
  TGI: > 100 µM

## COC(=O)/C=C1/CCC(C)(C(=O)NS(=O)(=O)c2ccc(C)cc2)C1(C)C (stereo unspecified)
[1]
  TGI: > 100 µM
[2]
  TGI: > 100 µM
[3]
  TGI: > 100 µM
[4]
  TGI: > 100 µM
[5]
  TGI: > 100 µM
[6]
  TGI: > 100 µM
[7]
  TGI: > 100 µM
[8]
  TGI: > 100 µM
[9]
  TGI: > 100 µM
[10]
  TGI: > 100 µM
[11]
  TGI: > 100 µM
[12]
  TGI: > 100 µM
[13]
  TGI: > 100 µM
[14]
  TGI: > 100 µM
[15]
  TGI: > 100 µM
[16]
  TGI: > 100 µM
[17]
  TGI: > 100 µM
[52]
  TGI: > 100 µM
[18]
  TGI: > 100 µM
[19]
  TGI: > 100 µM
[20]
  TGI: > 100 µM
[21]
  TGI: > 100 µM
[22]
  TGI: > 100 µM
[53]
  TGI: > 100 µM
[23]
  TGI: > 100 µM
[24]
  TGI: > 100 µM
[25]
  TGI: > 100 µM
[26]
  TGI: > 100 µM
[54]
  TGI: > 100 µM
[27]
  TGI: > 100 µM
[28]
  TGI: > 100 µM
[29]
  TGI: > 100 µM
[30]
  TGI: > 100 µM
[31]
  TGI: > 100 µM
[55]
  TGI: > 100 µM
[32]
  TGI: > 100 µM
[33]
  TGI: > 100 µM
[34]
  TGI: > 100 µM
[35]
  TGI: > 100 µM
[36]
  TGI: > 100 µM
[37]
  TGI: > 100 µM
[38]
  TGI: > 100 µM
[39]
  TGI: > 100 µM
[40]
  TGI: > 100 µM
[41]
  TGI: > 100 µM
[56]
  TGI: > 100 µM
[42]
  TGI: > 100 µM
[43]
  TGI: > 100 µM
[45]
  TGI: > 100 µM
[46]
  TGI: > 100 µM
[47]
  TGI: > 100 µM
[48]
  TGI: > 100 µM
[49]
  TGI: > 100 µM
[50]
  TGI: > 100 µM
[51]
  TGI: > 100 µM
